Tests used:
Experiment in all cases: two-electrode voltage clamp, Xenopus oocytes, inward current
Type in all cases: cell-based
HarmGR13 [1] = molecular target: T1, HarmGR13 (Helicoverpa armigera, UniProt Z9NT97MFL8, D159A); conditions: Ringer's solution pH 7.6, -80 mV; 500 mM ribose
T1 construct: full-length, 436 aa; cDNA from larval maxillary galea; pCS2+ cRNA injected into Xenopus laevis oocytes; expressed alone
T1 sequence (Z9NT97MFL8 1-436 D159A): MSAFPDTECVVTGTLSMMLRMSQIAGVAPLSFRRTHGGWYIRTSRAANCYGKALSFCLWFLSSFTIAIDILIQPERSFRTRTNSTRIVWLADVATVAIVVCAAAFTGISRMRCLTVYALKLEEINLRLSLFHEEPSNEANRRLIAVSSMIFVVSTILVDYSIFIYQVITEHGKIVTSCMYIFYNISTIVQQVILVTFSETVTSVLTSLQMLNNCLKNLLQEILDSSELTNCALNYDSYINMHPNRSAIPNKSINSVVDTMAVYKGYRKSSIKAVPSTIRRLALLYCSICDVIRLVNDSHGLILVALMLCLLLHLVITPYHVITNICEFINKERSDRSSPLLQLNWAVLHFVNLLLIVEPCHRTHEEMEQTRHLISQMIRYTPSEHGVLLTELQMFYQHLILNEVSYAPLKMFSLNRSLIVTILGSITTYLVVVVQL

HarmGR13 [2] = molecular target: T2, HarmGR13 (Helicoverpa armigera, UniProt Z9NT97MFL8); conditions: Ringer's solution pH 7.6, -80 mV; agonist; dose-response curve in Fig 5B, EC50 not given
T2 construct: full-length, 436 aa; cDNA from larval maxillary galea; pCS2+ cRNA injected into Xenopus laevis oocytes; expressed alone
T2 sequence (Z9NT97MFL8 1-436): T1 sequence (Z9NT97MFL8 1-436 D159A)

HarmGR13 [3] = molecular target: T3, HarmGR13 (Helicoverpa armigera, UniProt Z9NT97MFL8, D92A); conditions: Ringer's solution pH 7.6, -80 mV; 500 mM ribose
T3 construct: full-length, 436 aa; cDNA from larval maxillary galea; pCS2+ cRNA injected into Xenopus laevis oocytes; expressed alone
T3 sequence (Z9NT97MFL8 1-436 D92A): T1 sequence (Z9NT97MFL8 1-436 D159A)

HarmGR13 [4] = molecular target: T3, HarmGR13; conditions: Ringer's solution pH 7.6, -80 mV; 100 mM inositol
HarmGR13 [5] = molecular target: T1, HarmGR13; conditions: Ringer's solution pH 7.6, -80 mV; 100 mM inositol

## OC1OC[C@@H](O)[C@@H](O)[C@H]1O (stereo partly drawn) [ribose]
HarmGR13 [1]
  inward current at 500 mM: each of three mutated HarmGR13 did not show any inward currents
HarmGR13 [2]
  threshold concentration: 10 mM
HarmGR13 [3]
  inward current at 500 mM: each of three mutated HarmGR13 did not show any inward currents

## O[C@H]1[C@H](O)[C@@H](O)[C@H](O)[C@@H](O)[C@H]1O [myo-inositol]
HarmGR13 [4]
  inward current at 100 mM: each of three mutated HarmGR13 did not show any inward currents
HarmGR13 [2]
  threshold concentration: 1 mM
HarmGR13 [5]
  inward current at 100 mM: each of three mutated HarmGR13 did not show any inward currents

From PMC12165416, “HarmGR13 mediates myo-inositol taste perception in Helicoverpa armigera larvae” (PLOS Genetics, 2025)
